Legend:
[1] = test system: mice subjected to bilateral renal pedicle clamping; experiment: Ischemic AKI by bilateral renal pedicle clamping (BUN, creatinine, survival); assay type: in vivo, C57BL/6J mice; conditions: 28 min bilateral pedicle clamping
Source text: All animals were maintained under the guidance and policies of the Boston University Animal Core facility using National Institutes of Health (NIH) and Institutional Animal Care and Use Committee guidelines. Male and female C57BL/6J mice were purchased from Jackson Laboratory (Bar Harbor, ME), and they were housed and bred at the Boston University Animal Core facility under license number AN-15024. […] Animas were handled in a manner consistent with the NIH guide for their care and use under Institutional Animal Care and Use Committee approval.
Mice were subjected to bilateral renal pedicle clamping after being anesthetized with 2,2,2-tribromoethanol. […] 13,28,29 Slight variation in the clamp time was required to achieve similar degrees of renal dysfunction in the relatively large number of animals studied. The clamp was then removed, and reperfusion was confirmed by visual inspection of the kidneys. Sham ischemia was performed by encircling each renal pedicle with a nonocclusive ligature.
For in vitro testing in primary human PTECs, peptides ([…]) were tested that replicate the Bax domain responsible for binding NPM,34 or two peptides designed to interfere with NPM function were compared with a random nonspecific sequence of the same length (control). Peptides intended to interfere with NPM function overlap key phosphorylation sites located at the NPM amino terminus (peptide 2) or carboxy terminus (peptide 3) detected by mass spectrometry. To improve cell uptake, all peptides contained a cell-penetrating sequence13. For in vivo experiments, a renal-targeting sequence (NLS) was added to enhance renal peptide uptake.35 Peptides were commercially synthesized (Biomatik, Wilmington, DE) J Am Soc Nephrol 30: ccc-ccc, 2018 Nucleophosmin in AKI 3www.jasn.org BASIC RESEARCHas follows: NPM-Bax blocking peptide: Ac-KKKRKV-(bA)-[…]-COOH (SEQ ID NO: 8); peptide 2: AC-PKKKRKV-(bA)-[…]-COOH (SEQ ID NO: 9); and peptide 3: AC-PKKKRKV-(bA)-ESFKK-QEKTPKTPKGPSSVED-IKAK-COOH (SEQ ID NO: 10). […] A total of 42 control and 56 experimental animals were studied.
Transient exposure to metabolic inhibitors replicates ischemia in vivo by activating Bax and causing cell death.13,29,36-38 Cell viability was assayed using a modified colorimetric technique (MTTassay).37 The number of surviving cells is expressed as a percentage of viable control cells detected at baseline. Serum BUN and creatinine levels were measured in tail vein blood samples for 7 days after ischemia using QuantiChrom BUN or creatinine assay kits (BioAssay Systems, Hayward, CA) according to the manufacturer's instructions.

PTEC = experiment: Toxicity of pharmacologic agents in PTEC; assay type: cell-based; conditions: exposure to the IC50 dose for 48-72 hr; data not shown
Source text: The inventors have also tested pharmacologic agents that disrupt NPM-Bax at specific steps in the cell death pathway (outlined in FIG. 11). These agents include geronylgeronylacetone (GGA), a potent Hsp70 inducer86, avrainvillamide, and NSC34888437. […] The inventors recently reported that GGA induces Hsp70 in murine PTEC and in the intact murine kidney. Hsp70 markedly reduces NPM-Bax complex formation during ischemic stress by 2 distinct mechanisms: a nucleolar-restricted Hsp70 mutant limits NPM translocation into the cytosol, whereas a cytosol restricted Hsp70 mutant sequesters […].

CC(=O)CC/C=C(\C)CC/C=C(\C)CC/C=C(\C)CCC=C(C)C [GGA, geronylgeronylacetone, reference compound]
Animal survival [1]: all survived | Mean peak BUN [1]: 100 m/dl | PTEC morphology and toxicity (PTEC): does not alter PTEC morphology or cause significant toxicity

— patent US12018058B2, “Compositions and methods for diagnosing and/or treating kidney injury” (Boston Medical Center Corporation, priority 2018, dated 2024)
